Assay results reported in patent US5969017A, “Methods of treating or preventing cardiac arrhythmia” (Merck & Co., Inc., priority 1997, dated 1999).

What was measured:
Assay type in all cases: cell-based
IKr = molecular target: T1, IKr (Cavia porcellus, UniProt O08703); assay: Voltage clamp block of IKr in guinea pig ventricular myocytes; details: guinea pig ventricle
T1 construct: Guinea pig ventricular myocytes were isolated; endogenous in cells; host or cells: isolated guinea pig ventricular myocytes
T1 sequence (O08703 1-1294): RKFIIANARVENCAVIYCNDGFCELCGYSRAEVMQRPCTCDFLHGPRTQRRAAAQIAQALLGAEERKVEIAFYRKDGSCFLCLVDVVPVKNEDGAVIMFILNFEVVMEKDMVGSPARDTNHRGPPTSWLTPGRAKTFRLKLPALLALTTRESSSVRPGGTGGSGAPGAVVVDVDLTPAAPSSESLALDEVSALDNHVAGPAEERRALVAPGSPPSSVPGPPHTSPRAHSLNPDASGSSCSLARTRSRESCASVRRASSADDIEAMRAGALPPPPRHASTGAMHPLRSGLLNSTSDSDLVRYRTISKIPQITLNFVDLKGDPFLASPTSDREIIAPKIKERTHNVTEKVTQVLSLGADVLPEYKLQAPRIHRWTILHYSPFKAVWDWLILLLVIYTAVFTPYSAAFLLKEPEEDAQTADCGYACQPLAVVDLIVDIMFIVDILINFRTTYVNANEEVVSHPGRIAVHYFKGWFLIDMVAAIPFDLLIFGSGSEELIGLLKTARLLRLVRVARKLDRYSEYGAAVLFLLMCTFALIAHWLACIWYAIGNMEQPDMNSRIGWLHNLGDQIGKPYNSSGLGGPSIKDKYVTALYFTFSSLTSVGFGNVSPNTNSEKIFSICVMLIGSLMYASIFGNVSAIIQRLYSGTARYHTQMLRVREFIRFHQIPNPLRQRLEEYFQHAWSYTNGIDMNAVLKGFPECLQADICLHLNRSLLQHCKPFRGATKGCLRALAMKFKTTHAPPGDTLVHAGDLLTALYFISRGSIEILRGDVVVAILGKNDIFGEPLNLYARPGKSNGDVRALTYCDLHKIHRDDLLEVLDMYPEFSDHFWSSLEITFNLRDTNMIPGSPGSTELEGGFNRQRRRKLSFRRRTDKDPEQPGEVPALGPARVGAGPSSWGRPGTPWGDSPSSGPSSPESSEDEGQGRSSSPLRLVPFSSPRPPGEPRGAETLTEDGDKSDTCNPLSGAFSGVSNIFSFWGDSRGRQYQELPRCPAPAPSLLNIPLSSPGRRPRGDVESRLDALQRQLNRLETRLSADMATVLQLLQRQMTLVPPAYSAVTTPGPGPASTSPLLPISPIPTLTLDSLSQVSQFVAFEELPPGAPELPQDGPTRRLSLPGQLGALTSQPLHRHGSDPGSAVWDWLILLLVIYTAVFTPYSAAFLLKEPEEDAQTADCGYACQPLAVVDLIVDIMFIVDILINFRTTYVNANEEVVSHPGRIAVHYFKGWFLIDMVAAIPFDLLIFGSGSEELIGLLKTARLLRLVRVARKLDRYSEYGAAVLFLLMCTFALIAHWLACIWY
Protocol: (§1) D. Measurement of IKs IKr and IK1 in Guinea Pig Ventricular Myocytes.
(§2) Guinea pig ventricular myocytes were isolated using a modification of the procedure described by Mitra et al., Am. J. Physiol. 249:H1056-60 (1985). Excised hearts were perfused through the aorta (retrograde fashion) at a rate of 10 ml/min with oxygenated, warmed (37° C.) solutions described below. The heart was initially perfused for 7 minutes with a Tyrode's solution containing, in mM: 132 NaCl, 4 KCl, 1.2 MgCl2, 10 HEPES, 5 glucose, pH=7.2. The heart was then perfused with the same nominally Ca^2+ -free solution containing 150 units/ml Type II collagenase (Worthington) and 0.5 units/ml Type XIV protease (Sigma) for 8 minutes. This perfusate was followed by a Tyrode's solution contianing 0.2 mM CaCl2 (without enzymes) for 5 minutes. […]
(§3) The suction microelectrode technique described by Giles, W. R. and Shibata, E. F., "Voltage clamp of bull-frog cardiac pacemaker cells: a quantitative analysis of potassium currents", J. Physiol. […]
(§4) To record K^+ currents, the cells were bathed in a Ca^2+ -free Tyrode's solution containing 0.4 mM nisoldipine. […] Data was analyzed as % block from control membrane currents.
(§5) Nisoldipine was prepared as a 4 mM stock solution in polyethylne glycol 200. […] At the final concentrations used, neither polyethylene glycol 200 nor dimethyl sulfoxide had any effect on any of the measured membrane currents. […]

IKs = molecular target: T2, IKs (Cavia porcellus, UniProt O70344); assay: Voltage clamp block of IKs in guinea pig ventricular myocytes; details: guinea pig ventricle
T2 construct: Guinea pig ventricular myocytes were isolated; endogenous in cells; host or cells: isolated guinea pig ventricular myocytes
Protocol: as §1, §2, §3, §4, §5

IK1 = assay: Voltage clamp block of IK1 in guinea pig ventricular myocytes; details: 3 μM; guinea pig ventricle
Protocol: as §1, §2, §3, §4, §5

T2 sequence (O70344 whole entry): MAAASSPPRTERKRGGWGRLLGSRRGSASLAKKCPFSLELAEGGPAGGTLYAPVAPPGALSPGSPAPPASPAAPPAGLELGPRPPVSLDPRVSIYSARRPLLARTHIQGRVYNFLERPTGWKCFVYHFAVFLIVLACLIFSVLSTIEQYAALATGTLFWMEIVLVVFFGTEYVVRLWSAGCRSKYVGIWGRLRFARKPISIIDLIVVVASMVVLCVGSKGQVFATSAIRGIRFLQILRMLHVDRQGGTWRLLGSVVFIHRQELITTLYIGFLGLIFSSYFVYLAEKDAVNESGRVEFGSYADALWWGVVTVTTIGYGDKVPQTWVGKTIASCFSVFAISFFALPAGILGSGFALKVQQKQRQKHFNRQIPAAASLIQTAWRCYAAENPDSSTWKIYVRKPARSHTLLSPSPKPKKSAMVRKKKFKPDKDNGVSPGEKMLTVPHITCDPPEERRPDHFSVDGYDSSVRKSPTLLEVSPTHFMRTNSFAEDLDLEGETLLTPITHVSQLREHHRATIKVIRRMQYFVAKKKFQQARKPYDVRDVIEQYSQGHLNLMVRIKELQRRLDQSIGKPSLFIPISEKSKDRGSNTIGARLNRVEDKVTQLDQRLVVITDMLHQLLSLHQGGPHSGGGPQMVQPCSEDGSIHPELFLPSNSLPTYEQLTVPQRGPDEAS
T2 sequence (Q60409 whole entry partner): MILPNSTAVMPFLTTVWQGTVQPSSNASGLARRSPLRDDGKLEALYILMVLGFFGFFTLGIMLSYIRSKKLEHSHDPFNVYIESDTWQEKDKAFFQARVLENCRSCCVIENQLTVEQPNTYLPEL

In the case of `COc1ccc(-n2nc(Sc3ccc(Cl)cc3)c(C)c(C#N)c2=O)cc1` [C, 6-(4-Chlorophenylthio)-2-(4-methoxyphenyl)-5-methyl-3-oxo-2,3-dihydropyridazine-4-carbonitrile], the inhibition at 3 µM (IKr) is reported as 8.4%, the inhibition at 3 µM (IKs) is reported as 0% and the “% Block IK1” value (IK1) is reported as 0%.
